This test in a line: Cytotoxicity against mouse P388 cells after 3 days by MTT assay. It counts as functional, cell-based. The settings on record: P388, 72 h. (In general: Tetrazolium assays rely on reduction of a dye to a coloured formazan, in cell work by metabolically active cells.)

Each structure is given as a SMILES string.

As usually defined, the IC50 is the concentration at which inhibition is half-maximal.

For the compound `CC/C=C1/NC(=O)/C=C/[C@H](C(C)C)OC(=O)C(C)(C)[C@H](C[C@H](/C=C/C=C/C/C=C\CCCC)OC)OC(=O)CNC(=O)[C@H](CNC(N)=O)NC(=O)CNC(=O)[C@@H](CCCNC(=O)NS(=O)(=O)O)NC1=O`, half-maximal inhibition (IC50) required 30 µM.

As for `CC/C=C1/NC(=O)/C=C/[C@H](C(C)C)OC(=O)C(C)(C)[C@H](C[C@H](/C=C/C=C/C/C=C\CCC(C)C)OC)OC(=O)CNC(=O)[C@H](CNC(N)=O)NC(=O)CNC(=O)[C@@H](CCCNC(=O)NS(=O)(=O)O)NC1=O`, the IC50 amounted to 15 µM.

`CC/C=C1/NC(=O)/C=C/[C@H]([C@@H](C)CC)OC(=O)C(C)(C)[C@H](C[C@H](/C=C/C=C/C/C=C\CCC(C)C)OC)OC(=O)CNC(=O)[C@H](CNC(N)=O)NC(=O)CNC(=O)[C@@H](CCCNC(=O)NS(=O)(=O)O)NC1=O` came in with an IC50 of 29 µM.

On to `CC/C=C1/NC(=O)/C=C/[C@H](C(C)C)OC(=O)C(C)(C)[C@H](C[C@H](/C=C/C=C/C/C=C\CCC(C)C)OC)OC(=O)CNC(=O)[C@H](CNC(N)=O)NC(=O)CNC(=O)[C@@H](CCCNC(N)=O)NC1=O`, for which the IC50 came out at 36 µM.

Source of the values: ChEMBL document CHEMBL3867446, “Sulfoureido Lipopeptides from the Marine Sponge Discodermia kiiensis” (J Nat Prod, 2016).
